Target: T1, PTP-1B (Homo sapiens, UniProt P18031)
T1 construct: PTP-1B (purified, 1 mg/mL) as a 1:250 dilution
T1 sequence (P18031 1-321 limits assumed): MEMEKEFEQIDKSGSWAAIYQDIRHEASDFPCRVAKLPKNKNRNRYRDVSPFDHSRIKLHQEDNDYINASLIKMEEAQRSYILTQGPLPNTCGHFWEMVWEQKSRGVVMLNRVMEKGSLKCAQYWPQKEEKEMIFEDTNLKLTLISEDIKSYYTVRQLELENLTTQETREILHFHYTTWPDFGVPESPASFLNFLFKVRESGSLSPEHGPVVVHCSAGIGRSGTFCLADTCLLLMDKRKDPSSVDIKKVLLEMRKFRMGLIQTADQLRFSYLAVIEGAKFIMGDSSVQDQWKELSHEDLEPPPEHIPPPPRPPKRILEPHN
Test: pNPP assay for tyrosine phosphatase inhibitory activity
Format: biochemical
Settings: Table 1; pNPP substrate 10 mM, 30° C., 10 minutes, absorbance at 405 nm
Method: The compounds provided herein are evaluated for biological activity as inhibitors of PTP-1B using, for example, a pNPP assay. Such an assay can be used to screen compounds for tyrosine phosphatase inhibitory activity as shown in Example 39.
A 5× stock of pNPP (p-nitrophenol phosphate) substrate is prepared as 50 mM pNPP in assay buffer. Various tyrosine phosphatase solutions can be prepared as follows: • PTP-1B (purified, 1 mg/mL) as a 1:250 dilution (to a final concentration of 4:g/mL); • TC-PTP (NEB, 1000 units in 100:L) as a 1:50 dilution (to a final concentration of 2 U/10:L (4:g/mL)); • CD45 (Calbiochem, 20:g, 400 units in 100: L) as a 1 :50 dilution (to a final concentration of 0.8 U/10:L (4:g/mL)); • LAR (NEB, 1000 units in 200:L) as a 1:75 dilution (to a final concentration of 0.7 U/10:L (4:g/mL)); and • PTP-β (UBI, #14-350, 10,000 units, 40:g/571:L) as a 1:17.5 dilution (to a final concentration of 10 U/10:L (4:g/mL));
The compound to be tested is prepared as 1:16.7 and 1:50 dilutions from stock in a total volume of 1 00:M DMSO to give final concentrations of 626 and 200:M. The reaction mixtures are prepared in a 96-well microtiter plate (on ice) as 55:L assay buffer, 5:L of the diluted compound (to a final concentration of 31.3 and 10:M), 20:L of the pNPP substrate solution (to a final concentration of 10 mM) and 20:L PTPase in assay buffer. The reactants are mixed well, the plate placed in a water bath at 30° C. and incubated for 10 minutes. The reaction is then terminated by adding 1 OO:L of 2M K2CO3 per well, and the absorbance is measured at 405 nm by conventional means.
Unless otherwise indicated, this assay was used to determine activity for the selected compounds whose activity is recorded in Table 1 and Table 2.

IC50 [nM] | Structure (SMILES)
100 to 500 | O=C(O)c1ccccc1Oc1cccc(-c2cnc(N(Cc3ccc(C(F)(F)P(=O)(O)O)c(Br)c3)c3ccc(Cl)c(Cl)c3)o2)c1 [Example 18, 2-(3-{2-[[3-Bromo-4-(difluoro-phosphono-methyl)-benzyl]-(3,4-dichloro-phenyl)-amino]-oxazol-5-yl}-phenoxy)-benzoic acid]
1000 to 10000 | COC(=O)c1ccccc1-c1cccc(-c2cnc(N(Cc3ccc(C(F)(F)P(=O)(O)O)c(Br)c3)c3ccc(Cl)c(Cl)c3)o2)c1 [Example 19, 3′-{2-[[3-Bromo-4-(difluoro-phosphono-methyl)-benzyl]-(3,4-dichloro-phenyl)-amino]-oxazol-5-yl}-biphenyl-2-carboxylic acid methyl ester]
100 to 500 | O=C(O)c1ccccc1-c1cccc(-c2cnc(N(Cc3ccc(C(F)(F)P(=O)(O)O)c(Br)c3)c3ccc(Cl)c(Cl)c3)o2)c1 [Example 20, 3′-{2-[[3-Bromo-4-(difluoro-phosphono-methyl)-benzyl]-(3,4-dichloro-phenyl)-amino]-oxazol-5-yl}-biphenyl-2-carboxylic acid]
10000 to 100000 | O=C(O)c1ccc(CN(c2ccc(Cl)c(Cl)c2)c2nnc(-c3cccc(Oc4cccc(C(=O)O)c4)c3)o2)cc1 [Example 21]
1000 to 10000 | COC(=O)c1cccc(Oc2cccc(-c3nnc(N(Cc4ccc(C(F)(F)P(=O)(O)O)cc4)c4ccc(Cl)c(Cl)c4)o3)c2)c1 [Example 22, 3-[3-(5-{(3,4-Dichloro-phenyl)-[4-(difluoro-phosphono-methyl)-benzyl]-amino}-[1,3,4]oxadiazol-2-yl)-phenoxy]-benzoic acid methyl ester]
1000 to 10000 | O=C(O)c1cccc(Oc2cccc(-c3nnc(N(Cc4ccc(C(F)(F)P(=O)(O)O)cc4)c4ccc(Cl)c(Cl)c4)o3)c2)c1 [Example 23, 3-[3-(5-{(3,4-Dichloro-phenyl)-[4-(difluoro-phosphono-methyl)-benzyl]-amino}-[1,3,4]oxadiazol-2-yl)-phenoxy]-benzoic acid]
500 to 1000 | COC(=O)c1cccc(Oc2cccc(-c3nnc(N(Cc4ccc(C(F)(F)P(=O)(O)O)c(Br)c4)c4ccc(Cl)c(Cl)c4)o3)c2)c1 [Example 24, 3-(3-{5-[[3-Bromo-4-(difluoro-phosphono-methyl)-benzyl]-(3,4-dichloro-phenyl)-amino]-[1,3,4]oxadiazol-2-yl}-phenoxy)-benzoic acid methyl ester]
100 to 500 | O=C(O)c1cccc(Oc2cccc(-c3nnc(N(Cc4ccc(C(F)(F)P(=O)(O)O)c(Br)c4)c4ccc(Cl)c(Cl)c4)o3)c2)c1 [Example 25, 3-(3-{5-[[3-Bromo-4-(difluoro-phosphono-methyl)-benzyl]-(3,4-dichloro-phenyl)-amino]-[1,3,4]oxadiazol-2-yl}-phenoxy)-benzoic acid]
10000 to 100000 | CS(=O)(=O)c1ccc(-c2cnc(N(Cc3ccc(OCC(=O)O)c(Br)c3)c3ccc(Cl)c(Cl)c3)o2)cc1 [[2-Bromo-4-({(3,4-dichloro-phenyl)-[5-(4-methanesulfonyl-phenyl)-oxazol-2-yl]-amino}-methyl)-phenoxy]-acetic acid]

Same assay, conditions: Table 2; pNPP substrate 10 mM, 30° C., 10 minutes, absorbance at 405 nm

IC50 [nM] | Structure (SMILES)
500 to 1000 | CN(Cc1ccc(C(F)(F)P(=O)(O)O)c(Br)c1)c1ncc(-c2ccc(-c3ccccc3C(=O)O)cc2)o1 [Example 26, 4′-{2-[[3-Bromo-4-(difluoro-phosphono-methyl)-benzyl]-methyl-amino]-oxazol-5-yl}-biphenyl-2-carboxylic acid]
100 to 500 | O=C(O)c1ccccc1-c1ccc(-c2cnc(N(Cc3ccc(C(F)(F)P(=O)(O)O)c(Br)c3)c3ccccc3)o2)cc1 [Example 27, 4′-{2-[[3-Bromo-4-(difluoro-phosphono-methyl)-benzyl]-phenyl-amino]-oxazol-5-yl}-biphenyl-2-carboxylic acid]
100 to 500 | O=C(O)c1ccccc1-c1ccc(-c2cnc(N(Cc3ccc(C(F)(F)P(=O)(O)O)c(Br)c3)c3ccc(F)cc3)o2)cc1 [Example 28, 4′-{2-[[3-Bromo-4-(difluoro-phosphono-methyl)-benzyl]-(4-fluorophenyl)-amino]-oxazol-5-yl}-biphenyl-2-carboxylic acid]
100 to 500 | O=C(O)c1ccccc1-c1ccc(-c2cnc(N(Cc3ccc(C(F)(F)P(=O)(O)O)c(Br)c3)c3ccc(Cl)cc3)o2)cc1 [Example 29, 4′-{2-[[3-Bromo-4-(difluoro-phosphono-methyl)-benzyl]-(4-chlorophenyl)-amino]-oxazol-5-yl}-biphenyl-2-carboxylic acid]
100 to 500 | O=C(O)c1ccccc1-c1ccc(-c2cnc(N(Cc3ccc(C(F)(F)P(=O)(O)O)c(Cl)c3)c3ccc(Cl)cc3)o2)cc1 [Example 30, 4′-{2-[[3-Chloro-4-(difluoro-phosphono-methyl)-benzyl]-(4-chlorophenyl)-amino]-oxazol-5-yl}-biphenyl-2-carboxylic acid]
< 100 | CS(=O)(=O)c1ccc(-c2cnc(N(Cc3ccc(C(F)(F)P(=O)(O)O)c(Br)c3)c3ccc(F)cc3)o2)cc1 [Example 32, {[2-Bromo-4-({(4-fluoro-phenyl)-[5-(4-methanesulfonyl-phenyl)-oxazol-2-yl]-amino}-methyl)-phenyl]-difluoro-methyl}-phosphonic acid]
10000 to 100000 | CC(C)OC(=O)OC(C)OP(=O)(O)C(F)(F)c1ccc(CN(c2ccc(Cl)c(Cl)c2)c2ncc(-c3ccc(S(C)(=O)=O)cc3)o2)cc1Br (centres unmarked) [Example 33, {[2-Bromo-4-({(3,4-dichloro-phenyl)-[5-(4-methanesulfonyl-phenyl)-oxazol-2-yl]-amino}-methyl)-phenyl]-difluoro-methyl}-phosphonic acid mono-(1-isopropoxycarbonyloxy-ethyl) ester]
100 to 500 | CCOC(=O)C(C)NP(=O)(O)C(F)(F)c1ccc(CN(c2ccc(Cl)c(Cl)c2)c2ncc(-c3ccc(S(C)(=O)=O)cc3)o2)cc1Br [Example 34, {[2-Bromo-4-({(3,4-dichloro-phenyl)-[5-(4-methanesulfonyl-phenyl)-oxazol-2-yl]-amino}-methyl)-phenyl]-difluoro-methyl}-phosphonic acid mono-(L-alanylethyl ester) amidate]
10000 to 100000 | CC(C)(C)C(=O)OCOP(=O)(OCOC(=O)C(C)(C)C)C(F)(F)c1ccc(CN(c2ccc(F)cc2)c2ncc(-c3ccc(S(C)(=O)=O)cc3)o2)cc1Br [Example 35, 2,2-Dimethyl-propionic acid {[2-bromo-4-({(4-fluoro-phenyl)-[5-(4-methanesulfonylphenyl)-oxazol-2-yl]-amino}-methyl)-phenyl]-difluoro-methyl}-(2,2-dimethyl-propionyloxymethoxy)-phosphinoyloxymethyl ester]
100 to 500 | NC(=O)c1ccc(-c2cnc(N(Cc3ccc(C(F)(F)P(=O)(O)O)c(Br)c3)c3ccc(F)cc3)o2)cc1 [Example 37, [(2-Bromo-4-{[[5-(4-carbamoyl-phenyl)-oxazol-2-yl]-(4-fluoro-phenyl)-amino]-methyl}-phenyl)-difluoro-methyl]-phosphonic acid]
< 100 | O=P(O)(O)C(F)(F)c1ccc(CN(c2ccc(F)cc2)c2ncc(-c3ccc(-c4nn[nH]n4)cc3)o2)cc1Br [Example 38, ({2-Bromo-4-[((4-fluoro-phenyl)-{5-[4-(2H-tetrazol-5-yl)-phenyl]-oxazol-^2-yl}-amino)-methyl]-phenyl}-difluoro-methyl)-phosphonic acid]
